Here are results for four compounds from US5837256A, “Method for treatment of Lupus nephritis” (priority 1996, dated 1998).

For data set [1] the following is noted: relative to Seco; cited from earlier work.
Data set [2] deals with MRL/lpr mouse model of lupus. The data set is described as follows: Glomerular filtration rate (14C-inulin clearance) in MRL/lpr mice. It is filed as in vivo. How it is done: (§1) The MRL/lpr mouse model of lupus was chosen to study the effects of SDG on experimental nephritis since it represents the human disease in terms of immune and inflammatory reactions, and age-related renal function deterioration leading to progressive glomerular scarring.
(§2) Mice were obtained at 5 weeks of age from Jackson Laboratories, Me., U.S.A., and acclimatized for one week. From 6 weeks of age onwards, all groups were gavaged with 200 μl/day of water. The appropriate amount of SDG was dissolved in the water to administer either the low-dose (600 μg/day) or the high-dose (1200 μg/day) of SDG.
This example illustrates the effect of SDG on the glomerular filtration rate (GFR) assessed by ^14 C-inulin clearance.

Data set [3] has as its system MRL/lpr mouse model of lupus. Briefly: Onset and prevalence of proteinuria (Albustix) in MRL/lpr lupus mice. Type of data set: in vivo. How it is done:
as §1, §2
Gavaging was commenced at the age of 6 weeks in all groups.

The conditions of data set [4]: cited from earlier work.
Data set [5] relates to MRL/lpr mouse model of lupus. The data set is described as follows: Spleen weight index in MRL/lpr mice (splenomegaly). Type of data set: in vivo. The settings on record: for Spleen Weight/Body Weight Ratio (×100): n = 10. How it is done:
as §1, §2
We therefore examined the effects of low and high dosages of SDG on spleen weight. The spleen weight index was obtained as a ratio of spleen to body weight (×100).
Data analyzed by ANOVA followed by Bonferroni t-tests

The nature of data set [6]: Body weight (and food/water intake) of MRL/lpr lupus mice. Type of data set: in vivo, MRL/lpr mouse. How it is done: The MRL/lpr mouse model of lupus was chosen to study the effects of SDG on experimental nephritis since it represents the human disease in terms of immune and inflammatory reactions, and age-related renal function deterioration leading to progressive glomerular scarring. Mice were obtained at 5 weeks of age from Jackson Laboratories, Me., U.S.A., and acclimatized for one week. From 6 weeks of age onwards, all groups were gavaged with 200 μl/day of water. The appropriate amount of SDG was dissolved in the water to administer either the low-dose (600 μg/day) or the high-dose (1200 μg/day) of SDG. This example illustrates the effect of SDG on the body weight of MRL/lpr lupus mice in compared to the control group. The daily dosage was administered over a 17-week period (6 to 22 weeks of age).

The test system of data set [7] is MRL/lpr mouse model of lupus. The data set is described as follows: Cervical lymph node weight in MRL/lpr mice (lymphadenopathy). It is filed as in vivo. The settings on record: for cervical lymph node weights: n = 10. The protocol:
as §1, §2
We therefore examined the effects of low and high dosages of SDG on a deep cervical lymph node in these animals.
The data was non-normally distributed therefore, a non parametric (Kruskal-Wallis) statistical test was used.

Data set [8] is described as follows: Gut absorption/conversion of SDG after oral intake. It is filed as in vivo. The settings on record: human or animal. The text has this: Enterodiol and enterolactone are trivially referred to as lignans and contain a structural backbone of dibenzylbutane. The most abundant lignan detected in flax is secoisolariciresinol diglucoside (SDG).
The secoisolariciresinol (Seco) may be used per se or in the form of secoisolariciresinol diglucoside (SDG).

In data set [9] the test system is LDL cholesterol, cell mediated immunity, PAF production by PMN leucocytes, platelet aggregation. The note with it: cited from earlier work.
The nature of data set [10]: Lignan content of urine of mice gavaged with SDG. The note with it: after oral SDG 0.6, 1.2 and 4.8 mg/mouse (FIG. 1). The protocol: The mice were dosed with the SDG in amounts of 0.6, 1.2 and 4.8 mg/mouse. Urine samples from the mice were then analysed for lignans.
Setting [11] is: High-Lignan gp (1200 μg/day), age wk9.
[12] abbreviates: High-Lignan gp (1200 μg/day), age wk11.
[13] abbreviates: High-Lignan gp (1200 μg/day), age wk13.
Where [14] appears, read: High-Lignan gp (1200 μg/day), age wk15.
Setting [15] is: High-Lignan gp (1200 μg/day), age wk17.
Where [16] appears, read: High-Lignan gp (1200 μg/day), age wk19.
Where [17] appears, read: High-Lignan gp (1200 μg/day), age wk21.
Setting [18] is: Low-Lignan gp (600 μg/day), age wk9.
Setting [19] is: Low-Lignan gp (600 μg/day), age wk11.
The mark [20] stands for this setting: Low-Lignan gp (600 μg/day), age wk13.
Setting [21] is: Low-Lignan gp (600 μg/day), age wk15.
Where [22] appears, read: Low-Lignan gp (600 μg/day), age wk17.
Setting [23] is: Low-Lignan gp (600 μg/day), age wk19.
Where [24] appears, read: Low-Lignan gp (600 μg/day), age wk21.

For `COc1cc(C[C@@H](CO[C@@H]2O[C@H](CO)[C@@H](O)[C@H](O)[C@H]2O)[C@H](CO[C@@H]2O[C@H](CO)[C@@H](O)[C@H](O)[C@H]2O)Cc2ccc(O)c(OC)c2)ccc1O` [SDG, secoisolariciresinol diglucoside], the “water solubility compared with Seco” value in [1] was “greater water solubility”. Moreover, the “dose dependence of benefit on GFR” value in data set [2] (600 and 1200 μg/day) was “dose-dependant benefit”. Also, the GFR turned out to be 8.09 ± 2.74 ml/min/kg body weight in [2] (High-Lignan (1200 μg/day), 14 wks of age, n = 9); 5.33 ± 3.16 ml/min/kg body weight in data set [2] (High-Lignan (1200 μg/day), 22 wks of age, n = 10); 7.41 ± 3.88 ml/min/kg body weight in data set [2] (Low-Lignan (600 μg/day), 14 wks of age, n = 10); 4.81 ± 1.49 ml/min/kg body weight in [2] (Low-Lignan (600 μg/day), 22 wks of age, n = 10). Further, the “decline of renal function (GFR)” value in [2] (compared to vehicle treated control group) is recorded as “attenuates the decline of renal function (GFR)”. The “% of mice with ≥ 2 proteinuria on Albustix” value (“% of mice” for short) in data set [3] (setting [11]) is 0%; in [3] (High-Lignan gp (1200 μg/day), age wk 10), 0%; in data set [3] (setting [12]), 4%; in data set [3] (High-Lignan gp (1200 μg/day), age wk 12), 4%; in [3] (setting [13]) it was 4%; in data set [3] (High-Lignan gp (1200 μg/day), age wk 14) it was 4%. The “% of mice” value in [3] (setting [14]) was 7%; in [3] (High-Lignan gp (1200 μg/day), age wk 16), 7%; in data set [3] (setting [15]), 7%; in data set [3] (High-Lignan gp (1200 μg/day), age wk 18), 21%; in [3] (setting [16]), 36%; in data set [3] (High-Lignan gp (1200 μg/day), age wk 20), 50%. Also, the “% of mice” value in data set [3] (setting [17]) is on record as 43%; in data set [3] (High-Lignan gp (1200 μg/day), age wks 6-8) it was 0%; in [3] (setting [18]) it was 0%; in [3] (Low-Lignan gp (600 μg/day), age wk 10), 0%; in [3] (setting [19]) it was 0%; in data set [3] (Low-Lignan gp (600 μg/day), age wk 12), 0%. Further, the “% of mice” value in data set [3] (setting [20]) turned out to be 0%; in [3] (Low-Lignan gp (600 μg/day), age wk 14), 17%; in data set [3] (setting [21]) it was 21%; in data set [3] (Low-Lignan gp (600 μg/day), age wk 16), 21%; in data set [3] (setting [22]), 23%; in [3] (Low-Lignan gp (600 μg/day), age wk 18), 38%. Further, the “% of mice” value was found to be 38% in data set [3] (setting [23]); 38% in data set [3] (Low-Lignan gp (600 μg/day), age wk 20); 27% in data set [3] (setting [24]); 0% in data set [3] (Low-Lignan gp (600 μg/day), age wks 6-8). For the same compound, in data set [3] (low and high dosages), the onset of proteinuria entry was “delay the onset of proteinuria”. Further, the prevalence of proteinuria entry in data set [3] (low and high dosages) is on record as “reduce the prevalence of proteinuria”. Further, the metabolism on ingestion result in data set [4] (enzymatic hydrolysis and intestinal microflora) was “enzymatically hydrolyzed to the aglycone and transformed by intestinal microflora into enterodiol and enterolactone”. Also, the “absorption across the gut wall” value in data set [4] (generally accepted for diglycosides) is “not absorbed across the gut wall”. In addition, the “spleen weight index in the different groups” value in data set [5] (600 and 1200 μg/day, ANOVA, Bonferroni t-tests) is reported as “no significant difference”. Also, the “Spleen Weight/Body Weight Ratio (×100)” value in data set [5] (High-Lignan (1200 μg/day), 14 wks of age, marked a) was 0.77 ± 0.26; in data set [5] (High-Lignan (1200 μg/day), 22 wks of age, marked a,b) it was 1.74 ± 0.35; in [5] (Low-Lignan (600 μg/day), 14 wks of age, marked a), 0.93 ± 0.33; in data set [5] (Low-Lignan (600 μg/day), 22 wks of age, marked a,b), 1.89 ± 0.39. The “spleen weight gain compared to other groups” value in [5] (high dose SDG group, 14 weeks age-interval) was “moderately smaller spleen weight gain”. Moreover, the food intake entry in data set [6] (600 and 1200 μg/day) is “no significant difference”. Further, the water intake result in data set [6] (600 and 1200 μg/day) is “no significant difference”. For the same compound, the “body weight gain in the different treatment groups” value in data set [6] (600 and 1200 μg/day, 6 to 22 weeks of age) is recorded as “no significant difference”. Besides, the “Body Weight” value in [6] (High-Lignan gp (1200 μg/day), age w22) turned out to be 38 ± 3 g; in data set [6] (High-Lignan gp (1200 μg/day), age wk5 (before gavage, which began at 6 weeks)), 25 ± 2 g; in [6] (High-Lignan gp (1200 μg/day), age wk7) it was 26 ± 2 g; in [6] (setting [11]), 27 ± 2 g; in data set [6] (setting [12]), 29 ± 2 g; in data set [6] (setting [13]), 31 ± 3 g. Further, the “Body Weight” value in [6] (setting [14]) is 34 ± 3 g; in data set [6] (setting [15]) it was 37 ± 3 g; in data set [6] (setting [16]), 38 ± 3 g; in data set [6] (setting [17]), 39 ± 3 g; in data set [6] (Low-Lignan gp (600 μg/day), age w22), 38 ± 3 g; in [6] (Low-Lignan gp (600 μg/day), age wk5 (before gavage, which began at 6 weeks)), 25 ± 2 g. In addition, the “Body Weight” value is 26 ± 3 g in data set [6] (Low-Lignan gp (600 μg/day), age wk7); 27 ± 3 g in data set [6] (setting [18]); 29 ± 3 g in data set [6] (setting [19]); 31 ± 3 g in data set [6] (setting [20]); 33 ± 3 g in data set [6] (setting [21]); 36 ± 3 g in data set [6] (setting [22]). The “Body Weight” value amounted to 37 ± 3 g in data set [6] (setting [23]) and 38 ± 4 g in data set [6] (setting [24]). Also, the “reducing cell proliferation, a marker of immune and inflammatory activity” value in data set [7] (Examples 5 and 6 taken together) is on record as “moderate benefits”. Further, the “cervical lymph node weights” value in [7] (High-Lignan (1200 μg/day), 14 wks of age) is on record as 71 ± 65 mg; in [7] (High-Lignan (1200 μg/day), 22 wks of age, a,b: significantly greater than baseline and than 14 week values) it was 211 ± 58 mg; in data set [7] (Low-Lignan (600 μg/day), 14 wks of age, a: significantly greater than baseline) it was 97 ± 69 mg; in data set [7] (Low-Lignan (600 μg/day), 22 wks of age, a: significantly greater than baseline), 251 ± 91 mg. The “increase in lymph node weight” value in data set [7] (high dose (1200 μg/day), at/up to 14 weeks of age, Kruskal-Wallis) is given as “attenuated the increase in lymph node weight”. Moreover, the “conversion in the gut after oral administration” value in [8] is given as “converted to secoisolariciresinol in the gut”.
With `CC/C=C\C/C=C\C/C=C\CCCCCCCC(=O)O` [alpha-linolenic acid], in data set [9], the LDL cholesterol result was “lower”, the “PAF production by PMN leucocytes” value is on record as “lower”, the cell mediated immunity result was “lower” and the platelet aggregation result is reported as “lower”.
As to `OC[C@H](Cc1cccc(O)c1)[C@H](CO)Cc1cccc(O)c1` [enterodiol], the “mammalian lignans in the urine” value in [10] is reported as “only traces”.
For `COc1cc(CC(CO)C(CO)Cc2ccc(O)c(OC)c2)ccc1O` (stereo not drawn) [secoisolariciresinol], the “secoisolariciresinol concentrations in the urine” value in data set [10] is on record as “SDG dose dependent”.
